Assay results reported in PubChem BioAssay AID1963841 (Molecular Pharmacology Branch, DTP, NCI, 2024).
pIC50: −log10 of the molar value.

Tested on: 439559-082-T-J2-PDC spheroid viability
Experiment: Anticancer human tumor 439559-082-T-J2-PDC patient-derived colon adenocarcinoma cell line growth inhibition [POLQ]
Details: spheroids with HUVEC and MSC; for pIC50: curve of first compound; for viability, T/C: stronger effect = lower value
Method: Multicellular complex tumor spheroid response to Polymerase (POL) inhibitors (novobiocin, ART-558, RP6685) in combination with a variety of drugs and investigational agents in selected tumor cell lines
The POL inhibitors (novobiocin, ART-558, and RP6685) were evaluated both individually and in combination with standard of care and investigational anticancer small molecules within a complex spheroid model of solid tumors. . Complex spheroids include a stromal component modeled by human endothelial cells (HUVEC) and fibroblasts modeled by human mesenchymal stem cells (MSCs). The concentration ranges selected for each drug and investigational agent were based upon clinically achievable concentrations if the clinical Cmax of the agent was known.
Compounds. The drugs and investigational agents: novobiocin (NSC847541), ART-558 (NSC835418), RP-6685 (NSC848927), peposertib (NSC802822), ceralasertib (NSC780249), elimusertib (NSC800525), camonsertib (NSC841442), AZD-1390 (NSC803789), olaparib (NSC753686), talazoparib (NSC767125), rucaparib (NSC756644), sotorasib (NSC818433), MRTX-1133 (NSC836407), SN-38 (NSC673596), topotecan (NSC609699), epotoside (NSC141540), doxorubicin (NSC123127), gemcitabine (NSC613327), 5-fluorouracil (NSC19893), paclitaxel (NSC125973), vemurafenib (NSC761431), MSA-2 (NSC828583), SN-011 (NSC837082), adavosertib (NSC754352), prexasertib (NSC758257), carboplatin (NSC241240) and oxaliplatin (NSC266046), were obtained from the National Cancer Institute (NCI) Developmental Therapeutics Program Chemical Repository (21). The FDA-approved anticancer drug set is available from the Developmental Therapeutics Program at https://dtp.cancer.gov/organization/dscb/obtaining/. […] The stock solutions were prepared in dimethyl sulfoxide (DMSO, Sigma-Aldrich, St. Louis, MO, cat. D2650), except for the platinum compounds which were prepared in saline (Quality Biological, Gaithersburg, MD, cat. 114-055-101), at 800-fold the tested concentration and stored at -70 degrees C prior to their use. All drugs and investigational agents were tested over a range starting from a high concentration at or near the clinical Cmax and decreasing in half-log increments. If the clinical Cmax for an agent had not been determined, the highest concentration tested was 10 microM, except for SN-38, which was tested at a high concentration of 1 microM.
Cell Culture. All cells were maintained in an incubator at 37 degrees C and 5% CO2 with 95% humidity. The PDC lines were cultured according to standard operating procedures established by the NCI PDMR (https://pdmr.cancer.gov). Table 3 of the manuscript, lists the cell lines along with the number of the three cell types plated to form the mct-spheroids and media for tumor cell growth. After thawing, all PDC lines, except 997537-175-T-J1-PDC and 415267-285-R-J2-PDC, were cultured in Matrigel-coated flasks prepared with a working solution of 1X Ham's F-12 nutrient mix, without supplementation (Thermo Fisher Scientific, cat. 11765054), 100 U/mL penicillin-streptomycin (Thermo Fisher Scientific, cat. 15140122), and 2.5% Matrigel (Corning Inc., Corning, NY, cat. 354248) for the first three passages. The two PDC lines 997537-175-T-J1-PDC and 415267-285-R-J2-PDC were cultured on uncoated flasks. The 857933-349-R-J2-PDC line was cultured in 6C/Colon 1B media containing advanced DMEM/F-12 (Thermo Fisher Scientific, cat. 12634028), 10 mM HEPES (Thermo Fisher Scientific, cat. 15630080), 1X GlutaMAX supplement (Thermo Fisher Scientific, cat. 35050061), 0.1 mg/mL primocin (InvivoGen, San Diego, CA, cat. ant-pm-2), 10% defined fetal bovine serum, heat inactivated (HyClone Laboratories Inc., Logan, UT, cat. SH30070.03HI), 50% L-WRN conditioned media (ATCC, cat. CRL-3276), 1.25 mM N-Acetyl-L-cysteine (Sigma-Aldrich, cat. A9165), 10 mM nicotinamide (Sigma-Aldrich, cat. N0636), 1X B-27 supplement (Thermo Fisher Scientific, cat. 17504044), 1X N-2 supplement (Thermo Fisher Scientific, cat. […]
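Further: spheroids exposed to compounds for seven days before readout.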
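Wherever viability, T/C is given: 100% = DMSO vehicle control viability.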

CC1COCCN1c1cc(C2(S(C)(=N)=O)CC2)nc(-c2ccnc3[nH]ccc23)n1 (configuration not stated) + COC1C(OC(N)=O)C(O)C(Oc2ccc3c(O)c(NC(=O)c4ccc(O)c(CC=C(C)C)c4)c(=O)oc3c2C)OC1(C)C
pIC50 (second compound 0.0316 µM): < 5.00
pIC50 (second compound 0.1 µM): < 5.00
pIC50 (second compound 0.316 µM): < 5.00
pIC50 (second compound 1 µM): < 5.00
pIC50 (second compound 3.16 µM): < 5.00
pIC50 (second compound 10 µM): < 5.00
viability, T/C (second compound 0.0316 µM, first compound 0.0316 µM): 97.4%
viability, T/C (second compound 0.0316 µM, first compound 0.1 µM): 98.2%
viability, T/C (second compound 0.0316 µM, first compound 0.316 µM): 94%
viability, T/C (second compound 0.0316 µM, first compound 1 µM): 101%
viability, T/C (second compound 0.0316 µM, first compound 3.16 µM): 89.8%
viability, T/C (second compound 0.0316 µM, first compound 10 µM): 65.8%
viability, T/C (second compound 0.1 µM, first compound 0.0316 µM): 100%
viability, T/C (second compound 0.1 µM, first compound 0.1 µM): 101%
viability, T/C (second compound 0.1 µM, first compound 0.316 µM): 105%
viability, T/C (second compound 0.1 µM, first compound 1 µM): 92.6%
viability, T/C (second compound 0.1 µM, first compound 3.16 µM): 89.7%
viability, T/C (second compound 0.1 µM, first compound 10 µM): 66.4%
viability, T/C (second compound 0.316 µM, first compound 0.0316 µM): 101%
viability, T/C (second compound 0.316 µM, first compound 0.1 µM): 91.2%
viability, T/C (second compound 0.316 µM, first compound 0.316 µM): 93.5%
viability, T/C (second compound 0.316 µM, first compound 1 µM): 94.8%
viability, T/C (second compound 0.316 µM, first compound 3.16 µM): 90.2%
viability, T/C (second compound 0.316 µM, first compound 10 µM): 67%
viability, T/C (second compound 1 µM, first compound 0.0316 µM): 95%
viability, T/C (second compound 1 µM, first compound 0.1 µM): 99.3%
viability, T/C (second compound 1 µM, first compound 0.316 µM): 91.7%
viability, T/C (second compound 1 µM, first compound 1 µM): 86.6%
viability, T/C (second compound 1 µM, first compound 3.16 µM): 88.8%
viability, T/C (second compound 1 µM, first compound 10 µM): 66.8%
viability, T/C (second compound 3.16 µM, first compound 0.0316 µM): 94.7%
viability, T/C (second compound 3.16 µM, first compound 0.1 µM): 96.7%
viability, T/C (second compound 3.16 µM, first compound 0.316 µM): 89.7%
viability, T/C (second compound 3.16 µM, first compound 1 µM): 90.8%
viability, T/C (second compound 3.16 µM, first compound 3.16 µM): 87.2%
viability, T/C (second compound 3.16 µM, first compound 10 µM): 64%
viability, T/C (second compound 10 µM, first compound 0.0316 µM): 99.7%
viability, T/C (second compound 10 µM, first compound 0.1 µM): 97.4%
viability, T/C (second compound 10 µM, first compound 0.316 µM): 103%
viability, T/C (second compound 10 µM, first compound 1 µM): 89.4%
viability, T/C (second compound 10 µM, first compound 3.16 µM): 86.1%
viability, T/C (second compound 10 µM, first compound 10 µM): 63.9%
